The target of data set [1] is HER2 (Homo sapiens, UniProt P04626). The data set can be described thus: HotSpot kinase assay over HER2 (Reaction Biology). As to conditions: read-out: % kinase inhibition HER2.
Data set [2] has as its system PC3 prostate carcinoma cell line. The data set can be described thus: MTT cytotoxicity assay, PC3. In kind it is cell-based. As to conditions: Homo sapiens, 24 h. The source says:
(§1) Accordingly, we aimed to investigate the cytotoxic potential of this new series against prostate carcinoma cell lines. […] The potent nanomolar cell-based activity of this series of compounds over the tested prostate carcinoma cell line could be attributed to other possible targets in addition to EGFR and HER2 receptors. The presence of the 2-nitroimidazole moiety in the chemical structure of compounds 9a–h could develop possible covalent bonds between the nitroimidazole moiety and some cellular proteins.
(§2) Prostate cancer cell lines (PC3 and 22RV1) of American Type Culture Collection (ATCC) were obtained from Korean Cell Center (KCL). PC3 and 22RV1 cell lines were cultured in Roswell Park Memorial Institute Medium (RPMI) 1640 and Dulbecco’s modified Eagle’s medium (DMEM) (GenDepot, Barker, TX) supplemented with 1% penicillin–streptomycin and 10% foetal bovine serum (FBS). The cells were maintained at 37 °C in a 5% CO2 with a 95% humid atmosphere.
(§3) To further analyse the intracellular cytotoxicity effect of the as-synthesised compounds, MTT assay was performed. Moreover, the experiments were divided into subcategories. In each group, cancer cells were first seeded in 96-well plates (4 × 10^4 cells per well) and then incubated for 24 h at 37 °C in a 5% CO2-containing atmosphere. Subsequently, the medium from the culture plate was removed, and 100 µL of RPMI media containing different concentrations of compounds (0.01, 0.005, 0.0025, 0.00125, and 0.000625 µM) were then added into the cell lines in each well and incubated for 24 h in a 5% CO2 humidified incubator at 37 °C. Afterwards, MTT solution (150 μL, 1 mg/mL) was added to each well, replacing the media-containing compounds. After 4 h of incubation, the MTT reagent was removed, and 200 μL of DMSO was then added to dissolve the formazan crystals, and colour intensity was measured at a wavelength of 540 nm using a BioTek Synergy H1 instrument (BioTek, Winooski, VT). IC50 was calculated according to the equation of Boltzmann sigmoidal concentration–response curve using Graph Pad Prism 5 (La Jolla, CA).

The target in data set [3] is EGFR (Homo sapiens, UniProt P00533). In words: HotSpot kinase assay over EGFR (Reaction Biology). As to conditions: read-out: % kinase inhibition EGFR.
Data set [4] deals with 22RV1 prostate carcinoma cell line. The data set can be described thus: MTT cytotoxicity assay, 22RV1. As to conditions: Homo sapiens, 24 h. The class given is cell-based.
Source text: as §1, §2, §3
For orientation: Formazan colour is commonly taken as a measure of viable cells.

This passage reports inhibition, IC50 and melting point results from publication PMC10132233 (Journal of Enzyme Inhibition and Medicinal Chemistry, 2023).

As usually defined, the inhibition is the drop in the measured response relative to a control, in per cent. By IC50 is commonly meant the concentration that gives 50% inhibition. What is called melting point is the temperature of the solid-liquid transition.

EGFR, sequence (P00533 25-1210): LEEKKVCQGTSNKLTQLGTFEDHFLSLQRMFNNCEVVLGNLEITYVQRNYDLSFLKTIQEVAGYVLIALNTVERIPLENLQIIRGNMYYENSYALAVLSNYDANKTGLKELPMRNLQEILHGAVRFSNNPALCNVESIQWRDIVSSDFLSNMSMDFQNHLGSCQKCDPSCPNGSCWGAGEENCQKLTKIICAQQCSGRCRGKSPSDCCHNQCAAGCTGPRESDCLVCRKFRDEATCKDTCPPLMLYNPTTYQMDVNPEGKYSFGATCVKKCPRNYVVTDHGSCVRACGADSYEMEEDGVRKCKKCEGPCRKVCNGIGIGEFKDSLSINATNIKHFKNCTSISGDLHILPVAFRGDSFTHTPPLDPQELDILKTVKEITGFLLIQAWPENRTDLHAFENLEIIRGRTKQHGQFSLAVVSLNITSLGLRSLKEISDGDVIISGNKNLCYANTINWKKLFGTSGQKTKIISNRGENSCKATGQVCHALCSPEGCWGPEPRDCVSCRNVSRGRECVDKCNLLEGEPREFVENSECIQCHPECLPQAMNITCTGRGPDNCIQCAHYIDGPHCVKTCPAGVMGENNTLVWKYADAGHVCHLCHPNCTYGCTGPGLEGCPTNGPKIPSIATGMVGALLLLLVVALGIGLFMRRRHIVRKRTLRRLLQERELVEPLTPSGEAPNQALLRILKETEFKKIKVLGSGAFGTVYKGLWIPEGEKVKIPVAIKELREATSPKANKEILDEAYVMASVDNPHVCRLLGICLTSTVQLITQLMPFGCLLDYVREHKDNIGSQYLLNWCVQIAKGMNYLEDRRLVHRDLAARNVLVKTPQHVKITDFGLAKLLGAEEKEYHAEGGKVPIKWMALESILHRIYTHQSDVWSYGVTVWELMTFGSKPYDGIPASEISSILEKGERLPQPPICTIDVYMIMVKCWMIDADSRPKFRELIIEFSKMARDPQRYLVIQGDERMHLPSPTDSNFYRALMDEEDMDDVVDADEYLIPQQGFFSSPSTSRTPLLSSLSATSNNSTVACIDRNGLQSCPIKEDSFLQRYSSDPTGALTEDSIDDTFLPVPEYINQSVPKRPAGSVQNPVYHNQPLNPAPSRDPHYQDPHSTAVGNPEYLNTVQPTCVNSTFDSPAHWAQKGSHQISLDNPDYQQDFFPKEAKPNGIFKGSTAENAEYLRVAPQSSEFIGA
HER2, sequence (P04626 23-1255): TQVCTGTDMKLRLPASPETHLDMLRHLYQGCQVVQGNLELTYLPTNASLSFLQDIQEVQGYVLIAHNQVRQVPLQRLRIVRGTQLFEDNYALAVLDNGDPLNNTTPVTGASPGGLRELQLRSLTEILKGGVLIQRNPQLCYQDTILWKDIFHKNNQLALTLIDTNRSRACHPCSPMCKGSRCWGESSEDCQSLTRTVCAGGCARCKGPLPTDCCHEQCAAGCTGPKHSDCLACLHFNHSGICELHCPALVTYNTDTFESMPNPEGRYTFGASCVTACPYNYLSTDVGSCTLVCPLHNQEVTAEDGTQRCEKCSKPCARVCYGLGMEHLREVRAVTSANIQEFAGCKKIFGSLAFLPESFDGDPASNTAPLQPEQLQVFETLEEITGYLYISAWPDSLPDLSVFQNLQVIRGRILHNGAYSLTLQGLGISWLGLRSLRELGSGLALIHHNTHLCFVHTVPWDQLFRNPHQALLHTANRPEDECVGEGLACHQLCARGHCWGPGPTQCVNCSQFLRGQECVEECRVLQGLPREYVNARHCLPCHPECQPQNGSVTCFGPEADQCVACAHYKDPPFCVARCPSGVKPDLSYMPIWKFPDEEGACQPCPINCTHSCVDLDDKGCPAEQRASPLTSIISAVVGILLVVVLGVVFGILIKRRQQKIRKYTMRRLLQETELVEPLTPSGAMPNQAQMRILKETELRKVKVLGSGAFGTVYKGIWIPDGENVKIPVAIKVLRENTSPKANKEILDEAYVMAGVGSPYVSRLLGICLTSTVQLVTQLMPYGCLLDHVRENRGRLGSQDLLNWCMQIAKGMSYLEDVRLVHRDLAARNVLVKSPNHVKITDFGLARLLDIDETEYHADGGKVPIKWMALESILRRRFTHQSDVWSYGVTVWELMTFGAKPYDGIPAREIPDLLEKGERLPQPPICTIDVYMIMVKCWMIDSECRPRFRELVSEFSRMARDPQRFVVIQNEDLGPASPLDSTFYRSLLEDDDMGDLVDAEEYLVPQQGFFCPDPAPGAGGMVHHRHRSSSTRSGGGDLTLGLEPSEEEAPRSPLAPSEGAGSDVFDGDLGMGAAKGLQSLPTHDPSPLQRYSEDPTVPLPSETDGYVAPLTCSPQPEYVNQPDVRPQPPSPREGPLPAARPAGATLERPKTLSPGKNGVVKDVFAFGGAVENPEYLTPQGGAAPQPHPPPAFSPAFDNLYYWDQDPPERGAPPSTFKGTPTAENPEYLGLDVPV

`COc1cc2ncnc(Nc3ccc(Oc4ccc(Cl)c(Cl)c4)c(Cl)c3)c2cc1OCCCn1ccnc1[N+](=O)[O-]` [Compound 9a, N-(3-Chloro-4-(3,4-dichlorophenoxy)phenyl)-7-methoxy-6-(3-(2-nitro-1H-imidazol-1-yl)propoxy)quinazolin-4-amine] showed a melting point of 237 to 238 °C. Also, in data set [1], the inhibition at 10 µM was determined as 69.8%. The IC50 in data set [2] turned out to be 6.1 nM. For the same compound, the inhibition at 10 µM in data set [3] was 89%. The IC50 in data set [4] turned out to be 2.3 nM.
For `COc1cc2ncnc(Nc3ccc(Oc4cccc(C(F)(F)F)c4)c(Cl)c3)c2cc1OCCCCCn1ccnc1[N+](=O)[O-]` [Compound 9g, N-(3-Chloro-4-(3-(trifluoromethyl)phenoxy)phenyl)-7-methoxy-6-((5-(2-nitro-1H-imidazol-1-yl)pentyl)oxy)quinazolin-4-amine] the same measures were 90 to 91 °C, 96.2%, 4.6 nM, 99.2% and 1.3 nM.
In the case of `COc1cc2ncnc(Nc3ccc(Oc4cccc(C(F)(F)F)c4)c(Cl)c3)c2cc1OCCCn1ccnc1[N+](=O)[O-]` [Compound 9e, N-(3-Chloro-4-(3-(trifluoromethyl)phenoxy)phenyl)-7-methoxy-6-(3-(2-nitro-1H-imidazol-1-yl)propoxy)quinazolin-4-amine], the melting point was 232 to 233 °C. Further, in data set [1], the inhibition at 10 µM came out at 81.7%. Further, in data set [2], the IC50 worked out at 7.3 nM. The inhibition at 10 µM in data set [3] is 98.9%. Besides, the IC50 in data set [4] worked out at 0.8 nM.
For `COc1cc2ncnc(Nc3ccc(Oc4ccc(Cl)c(Cl)c4)c(Cl)c3)c2cc1OCCCCn1ccnc1[N+](=O)[O-]` [Compound 9b, N-(3-Chloro-4-(3,4-dichlorophenoxy)phenyl)-7-methoxy-6-(4-(2-nitro-1H-imidazol-1-yl)butoxy)quinazolin-4-amine] the same measures were 101 to 102 °C, 80.3%, 3.1 nM, 94.2% and 2 nM.
On the same counts, the results for `COc1cc2ncnc(Nc3ccc(Oc4ccc(Cl)c(Cl)c4)c(Cl)c3)c2cc1OCCCCCn1ccnc1[N+](=O)[O-]` [Compound 9c, N-(3-Chloro-4-(3,4-dichlorophenoxy)phenyl)-7-methoxy-6-((5-(2-nitro-1H-imidazol-1-yl)pentyl)oxy)quinazolin-4-amine] are 94 to 95 °C, 78.6%, 3.3 nM, 90% and 1.9 nM.
As to `COc1cc2ncnc(Nc3ccc(Oc4cccc(C(F)(F)F)c4)c(Cl)c3)c2cc1OCCCCCCn1ccnc1[N+](=O)[O-]` [Compound 9h, N-(3-Chloro-4-(3-(trifluoromethyl)phenoxy)phenyl)-7-methoxy-6-((6-(2-nitro-1H-imidazol-1-yl)hexyl)oxy)quinazolin-4-amine], the melting point was in the range of 84 to 85 °C. Also, the inhibition at 10 µM in data set [1] turned out to be 97%. Moreover, the IC50 in data set [2] stood at 5.6 nM. For the same compound, in data set [3], the inhibition at 10 µM amounted to 96.8%. In addition, the IC50 in data set [4] came to 1.1 nM.
On the same counts, the results for `COc1cc2ncnc(Nc3ccc(Oc4ccc(Cl)c(Cl)c4)c(Cl)c3)c2cc1OCCCCCCn1ccnc1[N+](=O)[O-]` [Compound 9d, N-(3-Chloro-4-(3,4-dichlorophenoxy)phenyl)-7-methoxy-6-((6-(2-nitro-1H-imidazol-1-yl)hexyl)oxy)quinazolin-4-amine] are 90 to 91 °C, 72.1%, 2.1 nM, 88.9% and 2.8 nM.
